# Earlier results in paper PMC9851200, “Multiparameter phenotypic screening for endogenous TFEB and TFE3 translocation identifies novel chemical series modulating lysosome function” (Autophagy, 2022).
# Legend:
# Set-up in all cases: method as in original PKIS2 published data
# [1] = target: T1, kinases (KINOMEscan panel) (Homo sapiens, UniProt P29323); conditions: EPHB2; Published KINOMEscan; ref original PKIS2 published data; cited from earlier work
# T1 sequence (P29323 19-1055): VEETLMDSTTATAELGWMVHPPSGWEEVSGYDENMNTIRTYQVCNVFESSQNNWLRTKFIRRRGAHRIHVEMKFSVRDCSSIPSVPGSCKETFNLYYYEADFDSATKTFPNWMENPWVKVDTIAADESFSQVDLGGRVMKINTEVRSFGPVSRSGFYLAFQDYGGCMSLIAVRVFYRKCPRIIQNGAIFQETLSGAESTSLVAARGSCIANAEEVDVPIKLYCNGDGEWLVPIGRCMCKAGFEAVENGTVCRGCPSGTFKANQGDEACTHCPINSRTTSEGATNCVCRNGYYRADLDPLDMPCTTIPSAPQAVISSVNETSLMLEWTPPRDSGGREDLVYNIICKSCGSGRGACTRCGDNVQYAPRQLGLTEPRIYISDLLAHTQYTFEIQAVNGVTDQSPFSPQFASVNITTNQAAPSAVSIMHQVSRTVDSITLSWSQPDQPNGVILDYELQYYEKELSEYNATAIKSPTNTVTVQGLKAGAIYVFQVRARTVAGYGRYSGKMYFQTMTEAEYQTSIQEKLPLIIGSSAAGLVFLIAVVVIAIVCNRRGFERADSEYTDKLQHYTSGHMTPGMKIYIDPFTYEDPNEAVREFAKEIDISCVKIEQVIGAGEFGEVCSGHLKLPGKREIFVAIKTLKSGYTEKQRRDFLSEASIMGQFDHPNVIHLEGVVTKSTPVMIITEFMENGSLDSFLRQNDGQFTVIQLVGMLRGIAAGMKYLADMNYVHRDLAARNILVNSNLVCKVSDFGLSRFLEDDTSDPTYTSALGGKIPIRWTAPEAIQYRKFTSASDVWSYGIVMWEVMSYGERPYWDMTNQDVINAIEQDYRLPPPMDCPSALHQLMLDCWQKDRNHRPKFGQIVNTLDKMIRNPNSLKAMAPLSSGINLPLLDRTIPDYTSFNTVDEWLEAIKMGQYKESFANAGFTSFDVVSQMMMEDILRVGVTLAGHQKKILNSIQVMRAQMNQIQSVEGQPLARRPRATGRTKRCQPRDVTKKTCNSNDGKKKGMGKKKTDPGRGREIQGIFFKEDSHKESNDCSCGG
# [2] = target: T2, kinases (KINOMEscan panel) (Homo sapiens, UniProt P42680); conditions: kinase TEC; Published KINOMEscan; ref original PKIS2 published data; cited from earlier work
# T2 sequence (P42680 1-631): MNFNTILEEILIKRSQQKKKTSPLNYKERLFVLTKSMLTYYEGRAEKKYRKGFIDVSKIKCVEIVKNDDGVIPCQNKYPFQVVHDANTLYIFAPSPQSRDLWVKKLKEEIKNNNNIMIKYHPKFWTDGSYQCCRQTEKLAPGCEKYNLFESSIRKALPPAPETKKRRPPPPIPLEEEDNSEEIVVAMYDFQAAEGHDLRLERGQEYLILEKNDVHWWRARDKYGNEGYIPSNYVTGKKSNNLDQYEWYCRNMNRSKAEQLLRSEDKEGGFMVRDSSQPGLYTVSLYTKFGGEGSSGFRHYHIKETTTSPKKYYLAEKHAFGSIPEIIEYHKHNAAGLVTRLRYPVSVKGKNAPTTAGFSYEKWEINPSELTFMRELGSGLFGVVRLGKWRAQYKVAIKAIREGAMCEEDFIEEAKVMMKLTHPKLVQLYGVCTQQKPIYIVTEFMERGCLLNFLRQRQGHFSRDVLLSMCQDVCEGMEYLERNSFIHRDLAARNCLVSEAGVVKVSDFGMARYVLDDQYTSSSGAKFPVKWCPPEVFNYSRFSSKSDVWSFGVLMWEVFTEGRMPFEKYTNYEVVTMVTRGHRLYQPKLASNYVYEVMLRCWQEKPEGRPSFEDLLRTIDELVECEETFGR
# [3] = target: kinases (KINOMEscan panel) (Homo sapiens, UniProt Q9BX84); conditions: TRPM6; Published KINOMEscan; ref original PKIS2 published data; cited from earlier work
# [4] = target: kinases (KINOMEscan panel) (Homo sapiens, UniProt P37023); conditions: ACVRL1; Published KINOMEscan; ref original PKIS2 published data; cited from earlier work
# Sequence of kinases (KINOMEscan panel) (Homo sapiens, UniProt P37023) (P37023 22-503): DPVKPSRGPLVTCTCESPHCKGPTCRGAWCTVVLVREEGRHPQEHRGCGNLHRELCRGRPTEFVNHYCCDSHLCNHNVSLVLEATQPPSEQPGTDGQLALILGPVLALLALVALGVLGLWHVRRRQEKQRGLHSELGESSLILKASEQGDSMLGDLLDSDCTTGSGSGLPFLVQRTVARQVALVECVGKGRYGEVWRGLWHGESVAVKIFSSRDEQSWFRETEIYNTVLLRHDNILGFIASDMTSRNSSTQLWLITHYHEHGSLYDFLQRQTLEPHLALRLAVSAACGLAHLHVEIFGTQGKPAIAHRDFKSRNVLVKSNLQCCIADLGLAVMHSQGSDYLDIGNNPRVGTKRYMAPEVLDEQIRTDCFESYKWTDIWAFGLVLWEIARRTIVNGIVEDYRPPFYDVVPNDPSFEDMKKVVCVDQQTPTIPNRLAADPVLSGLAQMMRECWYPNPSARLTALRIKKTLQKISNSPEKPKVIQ
# [5] = target: kinases (KINOMEscan panel) (Homo sapiens, UniProt O95819); conditions: MAP4K4; Published KINOMEscan; ref original PKIS2 published data; cited from earlier work
# Sequence of kinases (KINOMEscan panel) (Homo sapiens, UniProt O95819) (O95819 whole entry): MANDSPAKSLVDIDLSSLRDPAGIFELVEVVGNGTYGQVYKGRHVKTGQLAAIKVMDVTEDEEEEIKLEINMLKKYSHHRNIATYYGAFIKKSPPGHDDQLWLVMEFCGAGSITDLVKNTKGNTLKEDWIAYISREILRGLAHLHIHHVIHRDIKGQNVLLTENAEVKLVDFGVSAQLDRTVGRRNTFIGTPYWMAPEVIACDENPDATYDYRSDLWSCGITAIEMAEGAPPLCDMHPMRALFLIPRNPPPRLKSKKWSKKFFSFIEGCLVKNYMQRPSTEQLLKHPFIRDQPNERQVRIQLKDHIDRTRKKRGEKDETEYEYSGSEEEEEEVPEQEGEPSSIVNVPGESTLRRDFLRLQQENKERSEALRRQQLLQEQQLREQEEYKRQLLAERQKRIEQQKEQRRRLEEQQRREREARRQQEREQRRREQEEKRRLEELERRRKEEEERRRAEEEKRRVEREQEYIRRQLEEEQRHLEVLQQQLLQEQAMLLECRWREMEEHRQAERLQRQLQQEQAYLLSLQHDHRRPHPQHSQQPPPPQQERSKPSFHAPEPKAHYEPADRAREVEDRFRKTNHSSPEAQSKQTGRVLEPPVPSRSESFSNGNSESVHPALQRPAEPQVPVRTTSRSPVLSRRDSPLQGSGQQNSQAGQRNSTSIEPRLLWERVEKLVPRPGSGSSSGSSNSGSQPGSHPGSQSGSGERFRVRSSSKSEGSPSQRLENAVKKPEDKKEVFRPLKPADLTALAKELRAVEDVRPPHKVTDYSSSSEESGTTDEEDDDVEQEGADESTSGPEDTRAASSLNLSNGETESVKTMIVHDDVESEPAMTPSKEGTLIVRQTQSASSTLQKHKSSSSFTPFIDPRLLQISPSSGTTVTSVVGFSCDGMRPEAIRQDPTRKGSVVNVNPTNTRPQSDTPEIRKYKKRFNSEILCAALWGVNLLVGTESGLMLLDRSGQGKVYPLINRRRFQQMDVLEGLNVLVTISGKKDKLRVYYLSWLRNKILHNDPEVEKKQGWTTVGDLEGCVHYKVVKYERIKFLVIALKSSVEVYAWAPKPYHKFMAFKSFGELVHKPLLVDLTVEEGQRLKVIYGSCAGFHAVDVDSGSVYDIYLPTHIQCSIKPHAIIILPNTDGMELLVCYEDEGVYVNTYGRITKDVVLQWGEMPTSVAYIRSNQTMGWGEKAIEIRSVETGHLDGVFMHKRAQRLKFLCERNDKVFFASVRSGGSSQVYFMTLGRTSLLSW
# [6] = target: kinases (KINOMEscan panel) (Homo sapiens, UniProt P19784); conditions: CSNK2A2; Published KINOMEscan; ref original PKIS2 published data; cited from earlier work
# Sequence of kinases (KINOMEscan panel) (Homo sapiens, UniProt P19784) (P19784 whole entry): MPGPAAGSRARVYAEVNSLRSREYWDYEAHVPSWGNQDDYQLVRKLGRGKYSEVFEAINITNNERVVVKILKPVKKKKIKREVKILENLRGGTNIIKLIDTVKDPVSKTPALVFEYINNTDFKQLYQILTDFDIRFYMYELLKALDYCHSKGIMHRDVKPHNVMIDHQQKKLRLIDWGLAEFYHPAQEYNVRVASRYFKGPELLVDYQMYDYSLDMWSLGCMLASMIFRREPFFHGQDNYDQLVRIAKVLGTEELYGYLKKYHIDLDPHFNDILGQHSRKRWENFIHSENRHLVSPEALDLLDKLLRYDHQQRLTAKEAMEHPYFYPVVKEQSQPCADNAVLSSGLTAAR
# [7] = target: kinases (KINOMEscan panel) (Homo sapiens, UniProt P15056); conditions: BRAF; Published KINOMEscan; ref original PKIS2 published data; cited from earlier work
# Sequence of kinases (KINOMEscan panel) (Homo sapiens, UniProt P15056) (P15056 whole entry): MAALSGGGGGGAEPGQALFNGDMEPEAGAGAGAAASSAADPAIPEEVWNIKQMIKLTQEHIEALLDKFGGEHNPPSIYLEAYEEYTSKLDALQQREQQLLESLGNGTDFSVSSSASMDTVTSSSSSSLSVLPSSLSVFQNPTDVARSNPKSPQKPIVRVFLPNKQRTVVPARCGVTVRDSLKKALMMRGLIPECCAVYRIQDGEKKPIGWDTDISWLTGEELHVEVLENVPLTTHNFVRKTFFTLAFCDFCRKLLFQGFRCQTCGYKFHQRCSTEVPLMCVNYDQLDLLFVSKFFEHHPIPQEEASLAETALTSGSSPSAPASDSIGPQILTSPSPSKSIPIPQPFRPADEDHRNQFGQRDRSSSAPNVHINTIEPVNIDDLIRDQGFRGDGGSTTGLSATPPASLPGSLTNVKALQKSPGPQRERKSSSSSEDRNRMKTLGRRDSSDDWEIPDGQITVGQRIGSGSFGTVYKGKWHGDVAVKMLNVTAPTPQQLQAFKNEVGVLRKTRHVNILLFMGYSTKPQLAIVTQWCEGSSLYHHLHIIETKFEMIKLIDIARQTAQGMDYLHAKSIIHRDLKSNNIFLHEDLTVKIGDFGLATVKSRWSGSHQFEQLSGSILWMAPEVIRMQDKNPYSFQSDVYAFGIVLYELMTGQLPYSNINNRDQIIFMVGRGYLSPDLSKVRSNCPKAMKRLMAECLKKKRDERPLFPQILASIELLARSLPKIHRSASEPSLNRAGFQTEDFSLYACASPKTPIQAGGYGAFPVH
# [8] = target: kinases (KINOMEscan panel) (Homo sapiens, UniProt P10721); conditions: Published KINOMEscan, ref original PKIS2 published data, cited from earlier work
# Sequence of kinases (KINOMEscan panel) (Homo sapiens, UniProt P10721) (P10721 26-976): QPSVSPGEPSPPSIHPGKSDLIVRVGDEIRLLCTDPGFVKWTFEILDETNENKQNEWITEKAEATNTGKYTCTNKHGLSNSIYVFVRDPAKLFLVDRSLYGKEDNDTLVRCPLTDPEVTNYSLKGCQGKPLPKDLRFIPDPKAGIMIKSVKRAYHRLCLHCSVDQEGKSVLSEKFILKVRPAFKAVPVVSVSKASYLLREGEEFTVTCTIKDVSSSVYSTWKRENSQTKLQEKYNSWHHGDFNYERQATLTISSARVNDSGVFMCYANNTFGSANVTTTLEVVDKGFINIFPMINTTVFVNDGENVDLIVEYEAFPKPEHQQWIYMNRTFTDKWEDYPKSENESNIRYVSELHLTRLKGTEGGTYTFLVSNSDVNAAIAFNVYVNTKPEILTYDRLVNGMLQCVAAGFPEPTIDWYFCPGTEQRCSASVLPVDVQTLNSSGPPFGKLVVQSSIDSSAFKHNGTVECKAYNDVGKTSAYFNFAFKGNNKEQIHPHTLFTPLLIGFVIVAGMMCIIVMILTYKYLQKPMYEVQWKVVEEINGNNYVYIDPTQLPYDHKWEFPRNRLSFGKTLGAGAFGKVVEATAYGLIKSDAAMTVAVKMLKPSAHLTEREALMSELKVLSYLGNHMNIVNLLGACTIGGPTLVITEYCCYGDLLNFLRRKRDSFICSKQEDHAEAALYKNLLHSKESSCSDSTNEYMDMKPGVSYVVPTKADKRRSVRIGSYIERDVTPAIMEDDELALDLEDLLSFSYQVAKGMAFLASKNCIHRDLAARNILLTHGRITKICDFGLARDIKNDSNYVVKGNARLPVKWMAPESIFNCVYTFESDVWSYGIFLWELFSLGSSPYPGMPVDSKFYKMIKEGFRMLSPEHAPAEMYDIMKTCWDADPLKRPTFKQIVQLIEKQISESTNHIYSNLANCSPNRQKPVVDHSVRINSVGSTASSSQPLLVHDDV
# [9] = target: kinases (KINOMEscan panel) (Homo sapiens, UniProt P48729); conditions: CSNK1A1; Published KINOMEscan; ref original PKIS2 published data; cited from earlier work
# Sequence of kinases (KINOMEscan panel) (Homo sapiens, UniProt P48729) (P48729 whole entry): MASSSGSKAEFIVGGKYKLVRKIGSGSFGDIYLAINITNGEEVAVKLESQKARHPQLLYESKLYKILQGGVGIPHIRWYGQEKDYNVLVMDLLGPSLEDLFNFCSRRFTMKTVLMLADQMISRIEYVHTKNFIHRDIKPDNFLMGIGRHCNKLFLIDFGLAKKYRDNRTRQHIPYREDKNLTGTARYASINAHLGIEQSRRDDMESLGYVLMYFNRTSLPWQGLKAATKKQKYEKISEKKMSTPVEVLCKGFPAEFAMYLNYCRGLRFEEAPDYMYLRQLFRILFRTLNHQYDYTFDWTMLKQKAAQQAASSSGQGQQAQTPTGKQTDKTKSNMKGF
structure (smiles),measurement,setting,value
Cc1cccc(-c2nc(Nc3ccncc3)c3ccccc3n2)n1 [NK215],KINOMEscan EPHB2,[1],16
same,KINOMEscan TEC,[2],10
same,KINOMEscan TRPM6,[3],0
same,KINOMEscan ACVRL1,[4],65
same,KINOMEscan MAP4K4,[5],0
same,KINOMEscan CSNK2A2,[6],0
same,KINOMEscan BRAF,[7],0
same,KINOMEscan KIT-autoinhibited,[8]; KIT-autoinhibited,0
same,KINOMEscan KIT,[8]; KIT,10
same,KINOMEscan CSNK1A1,[9],46
